The record followed here is patent US20070037820A1, “Substituted piperazines as metabotropic glutamate receptor antagonists” (AstraZeneca AB, priority 2005, published 2007).

This assay has as its target T1, human mGluR5d (Homo sapiens, UniProt P41594).
T1 construct: expressed in transfected cells; host or cells: GHEK (Human Embryonic Kidney cells expressing glutamate transporter) for the IP3 assay
Put plainly: Functional assessment of mGluR5 antagonism in cell lines expressing mGluR5d (FLIPR calcium mobilization / IP3 turnover; which assay gave the values is not stated). Type of assay: cell-based. The following applies: cells expressing human mGluR5d; assay (FLIPR or IP3) not specified. The text has this: The pharmacological properties of the compounds of the invention can be analyzed using standard assays for functional activity. Examples of glutamate receptor assays are well known in the art as described in for example Aramori et al., Neuron 8:757 (1992), Tanabe et al., Neuron 8:169 (1992), Miller et al., J. Neuroscience 15: 6103 (1995), Balazs, et al., J. Neurochemistry 69:151 (1997). The methodology described in these publications is incorporated herein by reference. Conveniently, the compounds of the invention can be studied by means of an assay that measures the mobilization of intracellular calcium, [Ca^2+]i in cells expressing mGluR5.
Intracellular calcium mobilization was measured by detecting changes in fluorescence of cells loaded with the fluorescent indicator fluo-3. Fluorescent signals were measured using the FLIPR system (Molecular Devices). […]
FLIPR experiments were done using a laser setting of 0.800 W and a 0.4 second CCD camera shutter speed. […] After each addition of the compound, the fluorescence signal was sampled 50 times at 1 second intervals followed by 3 samples at 5 second intervals. Responses were measured as the peak height of the response within the sample period. […]
We have validated a secondary functional assay for mGluR5d based on Inositol Phosphate (IP3) turnover. IP3 accumulation is measured as an index of receptor mediated phospholipase C turnover. […]
A general note: Calcium assays in cells follow changes in intracellular calcium, usually with a dye or a luminescent sensor.

T1 sequence (P41594 21-942 isoform P41594-3 limits assumed): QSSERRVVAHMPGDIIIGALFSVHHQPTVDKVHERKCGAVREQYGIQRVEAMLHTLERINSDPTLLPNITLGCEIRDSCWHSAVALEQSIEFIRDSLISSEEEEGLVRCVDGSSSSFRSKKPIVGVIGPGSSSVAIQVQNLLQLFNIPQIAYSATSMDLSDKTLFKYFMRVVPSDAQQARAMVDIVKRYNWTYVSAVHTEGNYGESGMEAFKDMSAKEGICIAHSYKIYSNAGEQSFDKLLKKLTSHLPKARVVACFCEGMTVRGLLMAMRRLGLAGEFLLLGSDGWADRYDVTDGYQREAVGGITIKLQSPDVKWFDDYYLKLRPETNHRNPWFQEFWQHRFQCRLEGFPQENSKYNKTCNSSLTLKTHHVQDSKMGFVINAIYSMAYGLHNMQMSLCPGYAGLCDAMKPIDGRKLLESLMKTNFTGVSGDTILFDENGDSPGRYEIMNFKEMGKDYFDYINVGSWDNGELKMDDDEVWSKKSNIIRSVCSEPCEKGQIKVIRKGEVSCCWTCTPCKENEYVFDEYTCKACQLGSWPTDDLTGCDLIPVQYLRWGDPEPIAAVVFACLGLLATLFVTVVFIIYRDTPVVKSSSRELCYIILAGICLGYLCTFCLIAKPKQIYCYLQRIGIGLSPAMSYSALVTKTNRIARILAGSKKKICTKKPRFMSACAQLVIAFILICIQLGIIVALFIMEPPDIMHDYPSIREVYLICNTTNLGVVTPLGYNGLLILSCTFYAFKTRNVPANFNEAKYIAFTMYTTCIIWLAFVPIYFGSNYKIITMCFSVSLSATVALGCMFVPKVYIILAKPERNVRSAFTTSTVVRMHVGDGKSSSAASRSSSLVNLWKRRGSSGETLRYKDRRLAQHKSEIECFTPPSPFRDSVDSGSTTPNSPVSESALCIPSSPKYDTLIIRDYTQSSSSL

In general, IC50 refers to the point on the concentration scale where inhibition reaches its midpoint. Turning to `CC(c1noc(-c2cccc(Cl)c2)n1)N1CCN(c2nccnc2C#N)CC1` (centres unmarked) [Example 15.11, 3-(4-{1-[5-(3-chlorophenyl)-1,2,4-oxadiazol-3-yl]ethyl}piperazin-1-yl) pyrazine-2-carbonitrile], the IC50 is 101 nM.

Take `N#Cc1ccc(N2CCN(Cc3cc(-c4cc(Cl)ccc4F)on3)CC2)nc1` [Example 16.1, 6-(4-{[5-(5-chloro-2-fluorophenyl)isoxazol-3-yl]methyl}piperazin-1-yl) nicotinonitrile]: the IC50 was found to be 199 nM.
